Measurements from patent publication US8735387B2, “Oxazolopyrimidines as Edg-1 receptor agonists” (Sanofi, priority 2008, dated 2014).

Biological target: T1, human Edg-1 receptor (Homo sapiens, UniProt P21453)
T1 construct: expressed in transfected cells; membrane preparation
Assay: GTP-γ-S assay using human Edg-1 receptors (scintillation proximity assay, membrane preparation from CHO Flp-In cell line)
Type: biochemical
Settings: example compound at 10 μM; relative to 10 μM S1P; GTP-γ-S SPA, human Edg-1 membranes
How it was run: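 Membranes came from Flp-In CHO cells constitutively expressing human Edg-1 carrying an N-terminal FLAG tag. Compound-induced receptor activation was read as GTP-γ-S binding in a scintillation proximity format.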

T1 sequence (P21453 whole entry): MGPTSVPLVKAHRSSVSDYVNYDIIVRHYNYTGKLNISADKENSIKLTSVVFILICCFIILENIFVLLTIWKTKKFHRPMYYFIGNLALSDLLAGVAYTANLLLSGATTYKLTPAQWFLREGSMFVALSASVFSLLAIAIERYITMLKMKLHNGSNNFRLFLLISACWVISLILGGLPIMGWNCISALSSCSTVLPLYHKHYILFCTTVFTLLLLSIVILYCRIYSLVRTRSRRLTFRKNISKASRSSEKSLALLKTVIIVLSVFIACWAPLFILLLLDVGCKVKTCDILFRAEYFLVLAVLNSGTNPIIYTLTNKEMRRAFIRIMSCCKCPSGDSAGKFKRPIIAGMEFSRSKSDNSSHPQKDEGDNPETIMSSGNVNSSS

SMILES | % Activation (Edg-1 receptor activation in percent of the activation by 10 μM S1P) [%]
CCCOc1nc(CN2CCCC2COC)nc2oc(-c3cccc(F)c3)nc12 (centres unmarked) [Example 140] | 92
C=CCOc1nc(Cc2ccc(Cl)c(Cl)c2)nc2oc(-c3cccc(F)c3)nc12 [Example 141] | 85
CCCOc1nc(CN2C(=O)CC(C)(C)CC2=O)nc2oc(-c3cccc(F)c3)nc12 [Example 142] | 75
CCCOc1nc(CN2CCCC2Cc2ccccc2)nc2oc(-c3cccc(F)c3)nc12 (centres unmarked) [Example 143] | 73
CCCOc1nc(CN2CCC(OC)CC2)nc2oc(-c3cccc(F)c3)nc12 [Example 145] | 67
CCCOc1nc(CN2CC(=O)N(Cc3ccccc3)C2=O)nc2oc(-c3cccc(F)c3)nc12 [Example 146] | 56
CCCOc1nc(CN2CCCCC2c2nccs2)nc2oc(-c3cccc(F)c3)nc12 (centres unmarked) [Example 147] | 55
CCCOc1nc(Cc2ccc(Cl)cc2)nc2oc(-c3ccc(N4CCOCC4)nc3)nc12 [Example 148] | 41
CCCOc1nc(Cc2ccc(Cl)cc2)nc2oc(-c3cc(C)cc(C)c3)nc12 [Example 149] | 102
CCCOc1nc(Cc2ccc(Cl)cc2)nc2oc(-c3ccncc3F)nc12 [Example 150] | 143
CCCOc1nc(Cc2ccc(Cl)cc2)nc2oc(-c3ccc(OC)nc3)nc12 [Example 151] | 26
CCCOc1nc(Cc2ccc(Cl)cc2)nc2oc(-c3ccc(O)c(F)c3)nc12 [Example 152] | 100
CCCOc1nc(Cc2ccc(Cl)cc2)nc2oc(-c3cncc(C)c3)nc12 [Example 153] | 84
CCCOc1nc(Cn2cnc(C)n2)nc2oc(-c3cccc(F)c3)nc12 [Example 154] | 88
CCCOc1nc(Cn2ncnc2C)nc2oc(-c3cccc(F)c3)nc12 [Example 155] | 87
CCCOc1nc(CC2CCOCC2)nc2oc(-c3cccc(C)c3)nc12 [Example 159] | 73
CCCOc1nc(CC2CCOCC2)nc2oc(-c3cccc(F)c3)nc12 [Example 160] | 69
Fc1cccc(-c2nc3c(OCC4CC4)nc(CC4CCOCC4)nc3o2)c1 [Example 161] | 96
CCCOc1nc(CC2CCC2)nc2oc(-c3cccc(C)c3)nc12 [Example 162] | 108
CCOc1nc(CC2CCC2)nc2oc(-c3cccc(C)c3)nc12 [Example 163] | 118
CCOc1nc(CC2CCC2)nc2oc(-c3cc(F)ccc3Cl)nc12 [Example 164] | 98
Cc1cccc(-c2nc3c(OCC4CC4)nc(CC4CCC4)nc3o2)c1 [Example 165] | 97
CCCOc1nc(Cc2cc(OC)cc(OC)c2)nc2oc(-c3cccc(C)c3)nc12 [Example 166] | 42
CCCOc1nc(Cc2ccc(Cl)cc2)nc2oc(-c3cc(C)ccc3F)nc12 [Example 167] | 102
CCCOc1nc(Cc2ccc(Cl)cc2)nc2oc(-c3ccc(Cl)c(C)c3)nc12 [Example 169] | 87

SMILES | % Activation (Edg-1 receptor activation in percent of the activation by 10 μM S1P) [%]
CCCOc1nc(Cc2ccc(Cl)cc2)nc2oc(-c3cccc(C)c3C)nc12 [Example 170] | 89
CCCOc1nc(Cc2ccc(Cl)cc2)nc2oc(-c3cccc(C)c3F)nc12 [Example 171] | 115
CCCOc1nc(Cc2ccc(Cl)cc2)nc2oc(-c3ccc(F)c(C)c3)nc12 [Example 172] | 78
CCCOc1nc(Cc2ccc(Cl)cc2)nc2oc(-c3cnc(N4CCN(C)CC4)nc3)nc12 [Example 173] | 77
CCCOc1nc(Cc2ccc(Cl)cc2)nc2oc(-c3cncnc3)nc12 [Example 174] | 75
CCCOc1nc(Cc2ccc(Cl)cc2)nc2oc(-c3ccc(C(C)=O)s3)nc12 [Example 175] | 116
CCCOc1nc(Cc2ccc(Cl)cc2)nc2oc(-c3ccc(OC)c(C)c3)nc12 [Example 176] | 94
CCCOc1nc(Cc2ccc(Cl)cc2)nc2oc(-c3cc(OC)ncc3Cl)nc12 [Example 177] | 106
CCCOc1nc(Cc2ccc(Cl)cc2)nc2oc(-c3ccc(N(C)C)c(C)c3)nc12 [Example 178] | 91
CCCOc1nc(CN2CCCC(O)C2)nc2oc(-c3cccc(F)c3)nc12 (centres unmarked) [Example 179] | 87
CCCOc1nc(CN2C(C(=O)O)CCS2(=O)=O)nc2oc(-c3cccc(F)c3)nc12 (centres unmarked) [Example 180] | 41
CCCOc1nc(CN2CCC(O)C2)nc2oc(-c3cccc(F)c3)nc12 (centres unmarked) [Example 181] | 58
CCCOc1nc(CN2CCCCC2)nc2oc(-c3cccc(F)c3)nc12 [Example 182] | 108
CCCOc1nc(CN2CCCC2)nc2oc(-c3cccc(F)c3)nc12 [Example 183] | 85
CCCOc1nc(CN2CCOC[C@@H]2C)nc2oc(-c3cccc(F)c3)nc12 [Example 184] | 88
CCCOc1nc(CN2CCOC[C@@H]2CO)nc2oc(-c3cccc(F)c3)nc12 [Example 185] | 97
Cc1cccc(-c2nc3c(OC(C)C)nc(CN4CCOCC4)nc3o2)c1 [Example 186] | 123
Cc1cccc(-c2nc3c(OC4COC4)nc(CN4CCOCC4)nc3o2)c1 [Example 187] | 116
CCCOc1nc(Cc2ccccc2)nc2oc(-c3cc(C)c(OC)c(C)c3)nc12 [Example 188] | 112
COc1cccc(-c2nc3c(OCC(C)C)nc(Cc4ccccc4)nc3o2)c1 [Example 189] | 114
CCOc1nc(Cc2ccc(Cl)cc2)nc2oc(-c3cc(C)c(OC)c(C)c3)nc12 [Example 190] | 66
CCOc1nc(Cc2ccc(Cl)cc2)nc2oc(-c3cc(C)c(O)c(C)c3)nc12 [Example 191] | 98
CCCOc1nc(Cc2ccc(Cl)cc2)nc2oc(-c3cc(C)c(OCC(O)CN(C)C)c(C)c3)nc12 (centres unmarked) [Example 192] | 60
CCCOc1nc(Cc2ccc(Cl)cc2)nc2oc(-c3cc(C)c(OCC(O)CN4CCOCC4)c(C)c3)nc12 (centres unmarked) [Example 193] | 114
Cc1cc(-c2nc3c(OC(C)C)nc(Cc4ccc(Cl)cc4)nc3o2)cc(C)c1OCC(O)CN1CCOCC1 (centres unmarked) [Example 194] | 98

Same assay, conditions: example compound at 10 μM; relative to 10 μM S1P; GTP-γ-S SPA, human Edg-1 membranes; read-out: % Activation (Edg-1 receptor activation in percent of the activation by 10 μM S1P)

SMILES | activation at 10 µM [%]
CCCOc1nc(Cc2ccc(Cl)cc2)nc2oc(-c3cc(C)c(OC)c(C)c3)nc12 [Example 168, 5-(4-chloro-benzyl)-2-(4-methoxy-3,5-dimethyl-phenyl)-7-propoxy-oxazolo[5,4-d]pyrimidine] | 117
CCCOc1nc(Cc2ccc(Cl)cc2)nc2oc(-c3cc(C)c(OCC(O)CNC(=O)c4ccccc4)c(C)c3)nc12 (centres unmarked) [Example 195, N-(3-{4-[5-(4-Chloro-benzyl)-7-propoxy-oxazolo[5,4-d]pyrimidin-2-yl]-2,6-dimethyl-phenoxy}-2-hydroxy-propyl)-benzamide] | 84
CCOc1nc(Cc2ccc(Cl)cc2)nc2oc(-c3cc(C)c(OCC(O)CSc4nnc(C(C)C)[nH]4)c(C)c3)nc12 (centres unmarked) [Example 196, 1-{4-[5-(4-Chloro-benzyl)-7-ethoxy-oxazolo[5,4-d]pyrimidin-2-yl]-2,6-dimethyl-phenoxy}-3-(5-isopropyl-4H-[1,2,4]triazol-3-ylsulfanyl)-propan-2-ol] | 83
CCOc1nc(Cc2ccc(Cl)cc2)nc2oc(-c3cc(C)c(OCC(O)CS(=O)(=O)c4nnc(C(C)C)[nH]4)c(C)c3)nc12 (centres unmarked) [Example 197, 1-{4-[5-(4-Chloro-benzyl)-7-ethoxy-oxazolo[5,4-d]pyrimidin-2-yl]-2,6-dimethyl-phenoxy}-3-(5-isopropyl-4H-[1,2,4]triazole-3-sulfonyl)-propan-2-ol] | 119
CCCOc1nc(Cc2ccc(Cl)cc2)nc2oc(-c3cc(C)c(OCC(=O)O)c(C)c3)nc12 [Example 198, {4-[5-(4-Chloro-benzyl)-7-propoxy-oxazolo[5,4-d]pyrimidin-2-yl]-2,6-dimethyl-phenoxy}-acetic acid] | 111
CCCOc1nc(Cc2ccc(Cl)cc2)nc2oc(-c3cc(C)c(OCC(=O)NCC(=O)O)c(C)c3)nc12 [Example 199, (2-{4-[5-(4-Chloro-benzyl)-7-propoxy-oxazolo[5,4-d]pyrimidin-2-yl]-2,6-dimethyl-phenoxy}-acetylamino)-acetic acid] | 112
